Results: patent US11008332B2, “Pharmaceutical composition for preventing or treating aging-related diseases containing decursin derivative as active ingredient” (PRG S&TECH INC., priority 2017, dated 2021)
Several values for one entry are separate records, joined by “and”; a condition that tells them apart may be missing. Equal values may be shown once.

What was measured:
[1] = tested on: HGPS cells; experiment: Immunofluorescence staining of HGPS cells (nuclear morphology, progerin, H3K9me3); assay type: cell-based, Human
Method: Human fibroblast cells from HGPS patients (AG03198, person; AG03199; person), WS patients (AG06300, person; AG03141, person; AG00780, person) and controls (GM 00038, person) were obtained from the Coriell Cell Repositories (Camden, N.J., USA) and were maintained in EMEM, containing 15% FBS, 2 mM glutamine or HEMEM with 26 mM HEPES without antibiotics.
Cells were seeded on a cover glass and transfected with the indicated vectors.
After fixing with 100% methanol or 1% paraformaldehyde (PFA) for 1 h at 4° C., cells were incubated with blocking buffer (PBS+anti-human-Ab; 1:400) for 1 h.
After washing with PBS twice, cells were incubated with anti-Lamin A/C, Progerin or H3K9Me3 in blocking buffer (1:200) overnight and sequentially with anti-goat Ab-FITC or anti-rabbit Ab-rhodamin in blocking buffer (1:500) for 7 h and mounted, and nucleus was stained with DAPI. Thereafter Immunofluorescence signal was detected by fluorescence microscopy (Zeiss and Logos).
For counting nuclear deformed cell, obtained immunofluorescence images were used. Nuclear membrane showing abnormalities, dependent on Lamin A staining, were counted from randomly selected field. Counted cells were calculated percentage.

[2] = biological target: T1, progerin and Lamin A binding (Homo sapiens, UniProt P02545); experiment: Competition assay of WRN-R1 and R2 against progerin and Lamin A binding; details: bead conjugated GST-progerin with GFP-Lamin A transfected 293 lysate, FIG. 4C
T1 construct: produced by cloning of 100 AA from upstream of the termination codon through PCR; made in house; GFP-Lamin A from transfected 293 cells
T1 sequence (P02545 1-614 isoform P02545-6): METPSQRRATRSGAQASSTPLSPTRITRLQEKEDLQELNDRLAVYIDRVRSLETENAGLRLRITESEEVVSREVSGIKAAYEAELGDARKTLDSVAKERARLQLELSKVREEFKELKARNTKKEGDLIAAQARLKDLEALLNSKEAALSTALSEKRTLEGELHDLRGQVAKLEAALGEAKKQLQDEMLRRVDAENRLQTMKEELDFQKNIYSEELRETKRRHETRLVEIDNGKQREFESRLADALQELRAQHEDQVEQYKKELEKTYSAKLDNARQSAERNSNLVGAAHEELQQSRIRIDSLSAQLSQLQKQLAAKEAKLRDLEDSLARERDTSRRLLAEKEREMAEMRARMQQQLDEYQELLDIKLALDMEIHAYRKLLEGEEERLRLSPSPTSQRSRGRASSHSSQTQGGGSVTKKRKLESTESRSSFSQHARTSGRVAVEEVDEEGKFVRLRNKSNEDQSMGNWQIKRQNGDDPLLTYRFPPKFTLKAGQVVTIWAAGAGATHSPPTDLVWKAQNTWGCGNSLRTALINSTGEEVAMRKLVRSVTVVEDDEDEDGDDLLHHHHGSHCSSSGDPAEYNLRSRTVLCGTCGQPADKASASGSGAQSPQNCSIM
Method: For the competition assay of WRN-R1 and R2 against progerin and Lamin A binding, bead-conjugated GST-progerin was incubated with GFP-Lamin A overexpressed 293 lysate with or without WRN-R1 or R2 recombinant protein.

[3] = biological target: T2, progerin (Homo sapiens, UniProt P02545); experiment: GST pull-down of bead-conjugated GST WRN-R1/WRN-R2 with GFP-progerin transfected 293 cell lysates; assay type: binding; details: compared with WRN-R1, FIG. 4B
T2 construct: expressed in transfected cells; host or cells: HEK293
T2 sequence (P02545 1-614 isoform P02545-6): T1 sequence (P02545 1-614 isoform P02545-6)
Method: For the analysis of protein-protein interaction, Glutathione S-transferase (GST) pull-down assay was performed.
To detect the interaction, GST-bead-fused Lamin A-C-terminal region, Progerin-C-terminal region, WRN-R1 region or WRN-R2 region was incubated with GFP tagged Progerin (GFP-Progerin) and Lamin A (GFP-Lamin A) transfected HEK293 cell lysate for 30 min at RT.
After washing once with PBS, precipitated materials were collected and subjected into SDS-PAGE and western blot with anti-GFP and GST.

[4] = Chemical pharmacokinetic (PK) analysis, blood/plasma concentration by LC-MS/MS; assay type: in vivo; details: for Plasma concentration, Mean: n = 3
Method: For PK analysis, 5 mg/kg of JH4 in 10% DMSO, 5% Tween […] solution was intravenously injected and 10 mg/kg of JH4 in 10% NMP and 90% PEG400 solution was per orally delivered. At the setting time-points, blood concentration of JH4 was determined by LC-MS/MS analysis and the PK analysis for other chemicals was also tested by the similar protocol.

[5] = tested on: Lmna^wt/G609G mice; experiment: Life span and morphology of Lmna^wt/G609G mice; assay type: in vivo, mouse
[6] = tested on: Lmna^G609G/G609G, progeria model mouse; details: intraperitoneal injection (i.p.), previous report; cited from earlier work
[7] = Water solubility; assay type: physicochemical
[8] = tested on: HGPS cells; details: previous report; cited from earlier work
[9] = tested on: progerin expression in progerin-transfected 293 cells; experiment: Progerin expression analysis in progerin-transfected 293 cells (Western blot); assay type: cell-based; details: 24 hours, FIG. 1D
Method: HEK293 cell line, obtained from ATCC, were maintained in liquid medium (DMEM) containing 10% FBS and 1% antibiotics at 37° C.
Whole-cell lysates were prepared in RIPA.
15 μg of cell extracts were separated by SDS-PAGE and transferred onto a PVDF membrane.
The membrane was incubated for 1 h to overnight at 4° C. with primary antibody, followed by reaction with a secondary antibody at room temperature for 1 h.
Peroxidase activity was detected by chemiluminescence with ECL kit (Intron, Seoul, Korea) as recommended by its manufacturer.

[10] = biological target: hERG ion channel (Homo sapiens, UniProt Q12809); experiment: hERG inhibition (in vitro ADME); details: in vitro ADME analysis, FIG. 2B
Chain of hERG ion channel (Q12809 whole entry): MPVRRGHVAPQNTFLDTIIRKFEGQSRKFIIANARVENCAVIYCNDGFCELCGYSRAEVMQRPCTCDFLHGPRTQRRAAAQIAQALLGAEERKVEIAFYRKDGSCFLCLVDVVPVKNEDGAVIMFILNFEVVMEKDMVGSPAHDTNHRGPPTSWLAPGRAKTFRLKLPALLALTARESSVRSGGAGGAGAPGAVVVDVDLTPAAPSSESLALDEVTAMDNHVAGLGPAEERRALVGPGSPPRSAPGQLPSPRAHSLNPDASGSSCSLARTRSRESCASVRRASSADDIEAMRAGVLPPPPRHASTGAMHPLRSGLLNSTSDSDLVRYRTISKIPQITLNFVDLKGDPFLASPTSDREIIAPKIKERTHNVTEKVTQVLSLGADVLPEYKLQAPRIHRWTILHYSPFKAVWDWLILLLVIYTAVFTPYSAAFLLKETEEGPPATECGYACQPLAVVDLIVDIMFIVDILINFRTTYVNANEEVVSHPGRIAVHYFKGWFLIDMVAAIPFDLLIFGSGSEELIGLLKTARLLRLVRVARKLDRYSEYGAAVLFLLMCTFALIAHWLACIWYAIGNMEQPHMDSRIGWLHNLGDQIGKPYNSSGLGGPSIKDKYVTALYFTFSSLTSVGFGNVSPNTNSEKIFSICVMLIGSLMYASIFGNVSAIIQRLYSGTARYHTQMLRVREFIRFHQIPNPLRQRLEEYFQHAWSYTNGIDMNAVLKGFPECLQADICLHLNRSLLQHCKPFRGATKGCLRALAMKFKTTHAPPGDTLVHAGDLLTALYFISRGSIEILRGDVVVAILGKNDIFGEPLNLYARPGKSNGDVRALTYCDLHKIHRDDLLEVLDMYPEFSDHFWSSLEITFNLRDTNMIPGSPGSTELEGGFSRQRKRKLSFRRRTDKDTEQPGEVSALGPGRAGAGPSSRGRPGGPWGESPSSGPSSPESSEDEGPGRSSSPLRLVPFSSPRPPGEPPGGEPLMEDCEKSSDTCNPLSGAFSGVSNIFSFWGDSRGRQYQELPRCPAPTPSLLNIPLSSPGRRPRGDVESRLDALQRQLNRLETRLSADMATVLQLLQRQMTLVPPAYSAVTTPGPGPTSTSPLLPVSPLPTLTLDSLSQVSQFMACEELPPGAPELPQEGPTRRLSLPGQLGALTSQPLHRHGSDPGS

[11] = tested on: Plasma protein; experiment: Plasma protein binding, human; assay type: in vitro ADME
Method: In vitro ADME studies (plasma protein binding, CYP inhibition, microsomal stability, plasma stability and hERG inhibition) were performed by New drug development center though standard protocols.

[12] = recombinant peptide delivered into HGPS cells with protein delivery agent, 24 hr, FIG. 4D
[13] = intravenous injection 5 mg/kg, 1 hr
[14] = intravenous injection 5 mg/kg, 2 hr
[15] = intravenous injection 5 mg/kg, 8 hr
[16] = intravenous injection 5 mg/kg, 24 hr
[17] = oral administration 10 mg/kg, 0.08 hr
[18] = oral administration 10 mg/kg, 0.25 hr
[19] = oral administration 10 mg/kg, 0.5 hr
[20] = oral administration 10 mg/kg, 1 hr
[21] = oral administration 10 mg/kg, 2 hr
[22] = oral administration 10 mg/kg, 4 hr
[23] = oral administration 10 mg/kg, 8 hr
[24] = oral administration 10 mg/kg, 24 hr
[25] = Lmna^wt/G609G mice, injection started from 43 weeks old, FIG. 2E

In the case of “WRN-R2: recombinant WRN-R2 region (hWRN 424-476), duplicated peptide HLSPNDNENDTSYVIESDEDELEMEMLK x2”, the “H3K9me3 expression in HGPS cells” value [1, 12] is reported as “H3K9me3 expression was improved”, the “nuclear morphology of HGPS cells” value [1, 12] is reported as “nuclear morphology was normalized” and the “blocking of interaction of progerin and Lamin A” value [2] is reported as “blocks the interaction of progerin and Lamin A”. For the same compound, the binding to progerin [3] was “strongly binds to progerin”.

With `CC1(C)Oc2cc3oc(=O)ccc3cc2C[C@@H]1OC(=O)/C=C/c1cccnc1` [JH4] the “disappearance after PO treatment” value ([4]; PO treatment, FIG. 1A) was “very rapidly disappeared by PO treatment”, the “Plasma concentration, Mean” value ([4]; intravenous injection 5 mg/kg, 0.08 hr) was 4.7 ng/mL and the “Plasma concentration, individual subjects” value ([4]; intravenous injection 5 mg/kg, 0.08 hr, 5 mg/kg) was 3.3 ng/mL and 4.6 ng/mL and 6.3 ng/mL. The “Plasma concentration, Mean” value ([4]; intravenous injection 5 mg/kg, 0.25 hr) was 1.5 ng/mL, the “Plasma concentration, individual subjects” value ([4]; intravenous injection 5 mg/kg, 0.25 hr, 5 mg/kg) was 1.7 ng/mL and 1.1 ng/mL and 1.8 ng/mL and the “Plasma concentration, Mean” value ([4]; intravenous injection 5 mg/kg, 0.5 hr) was 0.6 ng/mL. For the same compound, the “Plasma concentration, individual subjects” value ([4]; intravenous injection 5 mg/kg, 0.5 hr, 5 mg/kg) was 0.5 ng/ml (2×) and 0.7 ng/ml, the “Plasma concentration, individual subjects” value [4, 13] was “BQL (Below Quantifiable Limit (<1 ng/ml))” and the “Plasma concentration, Mean” value [4, 13] was “BQL (Below Quantifiable Limit (<1 ng/ml))”. The “Plasma concentration, individual subjects” value [4, 14] was “BQL (Below Quantifiable Limit (<1 ng/ml))”, the “Plasma concentration, Mean” value [4, 14] was “BQL (Below Quantifiable Limit (<1 ng/ml))” and the “Plasma concentration, Mean” value ([4]; intravenous injection 5 mg/kg, 4 hr) was “BQL (Below Quantifiable Limit (<1 ng/ml))”. For the same compound, the “Plasma concentration, individual subjects” value ([4]; intravenous injection 5 mg/kg, 4 hr, 5 mg/kg) was “BQL (Below Quantifiable Limit (<1 ng/ml)) (2×) and BOL”, the “Plasma concentration, individual subjects” value [4, 15] was “BQL (Below Quantifiable Limit (<1 ng/ml))” and the “Plasma concentration, Mean” value [4, 15] was “BQL (Below Quantifiable Limit (<1 ng/ml))”. The “Plasma concentration, individual subjects” value [4, 16] was “BQL (Below Quantifiable Limit (<1 ng/ml))”, the “Plasma concentration, Mean” value [4, 16] was “BQL (Below Quantifiable Limit (<1 ng/ml))” and the half-life in vivo ([4]; intravenously injected and orally administrated) was “very short half-life”. The “Plasma concentration, individual subjects” value [4, 17] was “BQL (Below Quantifiable Limit (<1 ng/ml))”, the “Plasma concentration, Mean” value [4, 17] was “BQL (Below Quantifiable Limit (<1 ng/ml))” and the “Plasma concentration, individual subjects” value [4, 18] was “BQL (Below Quantifiable Limit (<1 ng/ml))”. The “Plasma concentration, Mean” value [4, 18] was “BQL (Below Quantifiable Limit (<1 ng/ml))”, the “Plasma concentration, individual subjects” value [4, 19] was “BQL (Below Quantifiable Limit (<1 ng/ml))” and the “Plasma concentration, Mean” value [4, 19] was “BQL (Below Quantifiable Limit (<1 ng/ml))”. The “Plasma concentration, individual subjects” value [4, 20] was “BQL (Below Quantifiable Limit (<1 ng/ml))”, the “Plasma concentration, Mean” value [4, 20] was “BQL (Below Quantifiable Limit (<1 ng/ml))” and the “Plasma concentration, individual subjects” value [4, 21] was “BQL (Below Quantifiable Limit (<1 ng/ml))”. For the same compound, the “Plasma concentration, Mean” value [4, 21] was “BQL (Below Quantifiable Limit (<1 ng/ml))”, the “Plasma concentration, individual subjects” value [4, 22] was “BQL (Below Quantifiable Limit (<1 ng/ml))” and the “Plasma concentration, Mean” value [4, 22] was “BQL (Below Quantifiable Limit (<1 ng/ml))”. The “Plasma concentration, individual subjects” value [4, 23] was “BQL (Below Quantifiable Limit (<1 ng/ml))”, the “Plasma concentration, Mean” value [4, 23] was “BQL (Below Quantifiable Limit (<1 ng/ml))” and the “Plasma concentration, individual subjects” value [4, 24] was “BQL (Below Quantifiable Limit (<1 ng/ml))”. For the same compound, the “Plasma concentration, Mean” value [4, 24] was “BQL (Below Quantifiable Limit (<1 ng/ml))”, the prolongation of life ([5]; Lamn^wt/G609G model) was “about 10 weeks” and the average life span [5, 25] was 54 weeks. For the same compound, the “maximum (max) life span” value [5, 25] was 56 weeks, the “prolongation of progerin model mouse lifespan” value [6] was “about 4 weeks” and the water solubility [7] was “very low water solubility”. The “aging-related markers in HGPS cells” value [8] was “restored aging-related markers such as p16/INK4A, DNA-PK and H3K9me3 expression” and the “nuclear deformation of HGPS cells” value [8] was “improved the nuclear deformation of HGPS cells”.

In the case of `CC1(C)Oc2cc3oc(=O)ccc3cc2CC1OC(=O)N/C=C/c1cccnc1` (stereo not shown) [JH010], the “bioavailability (B.A.)” value ([4]; PK analysis, FIG. 2A) is reported as 70%, the PK profile ([4]; in vivo PK analysis, FIG. 2A) is reported as “proper PK profile” and the progerin expression [9] is reported as “inhibiting progerin expression”. The “nuclear abnormality of HGPS cells” value ([1]; HGPS cells incubated 48 hr, FIG. 1E) was “improved nuclear abnormality of HGPS cells”, the “H3K9me3 expression in HGPS cells” value ([1]; immunostaining, FIG. 1F) was “induced H3K9me3 expression” and the “hERG ion channel inhibition” value [10] was “hERG ion channel inhibition of the JH010 compound was confirmed”.

In the case of `C[C@@H]1C[C@H]2[C@@H]3CCC4=CC(=O)C=C[C@]4(C)[C@@]3(F)[C@@H](O)C[C@]2(C)[C@@]1(O)C(=O)CO` [Dexamethasone], the “Plasma protein binding Human (% Bound)” value [11] is reported as 62.1 % Bound.
